Results published in ChEMBL document CHEMBL1933004, “Novel (S)-1,2,3,4-tetrahydroisoquinoline-3-carboxylic acids: peroxisome proliferator-activated receptor γ selective agonists with protein-tyrosine phosphatase 1B inhibition” (Bioorg Med Chem, 2012).

What was measured:
Mus musculus [1] = assay: Hypotriglyceridemic activity in diabetic KK-Ay mouse model assessed as decrease in triglyceride level at 30 mg/kg, po qd for 14 days (reference value: 819.9 +/- 135.5 mg/dl); assay type: functional
Rattus norvegicus [2] = assay: Effect on RBC count in Sprague-Dawley rat at 25 mg/kg after 28 days (reference value: 832 +/- 25.2 x 10 ' 4/micro L); assay type: functional
[3] = molecular target: T1, Tyrosine-protein phosphatase non-receptor type 1 (Homo sapiens, UniProt P18031); assay: Inhibition of PTB1B using pNPP as substrate after 30 mins
T1 sequence (P18031 whole entry): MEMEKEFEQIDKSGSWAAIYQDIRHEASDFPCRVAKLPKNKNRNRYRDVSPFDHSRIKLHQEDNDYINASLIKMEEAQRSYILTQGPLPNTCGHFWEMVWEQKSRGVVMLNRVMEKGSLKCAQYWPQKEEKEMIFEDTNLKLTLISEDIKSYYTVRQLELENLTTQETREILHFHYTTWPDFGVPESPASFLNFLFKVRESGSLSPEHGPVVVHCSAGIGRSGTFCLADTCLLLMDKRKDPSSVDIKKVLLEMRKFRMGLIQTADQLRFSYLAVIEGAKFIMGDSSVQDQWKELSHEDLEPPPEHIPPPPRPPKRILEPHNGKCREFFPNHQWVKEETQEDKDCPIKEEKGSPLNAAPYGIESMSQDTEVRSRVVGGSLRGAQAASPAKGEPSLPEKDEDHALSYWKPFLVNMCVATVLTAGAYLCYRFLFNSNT

Rattus norvegicus [4] = assay: Effect on hematocrit level in Sprague-Dawley rat at 12.5 mg/kg after 28 days (reference value: 47.5 +/- 0.6 %); assay type: functional
Mus musculus [5] = assay: Hypoglycemic activity in diabetic KK-Ay mouse model assessed as decrease in glucose level at 3 mg/kg, po qd for 14 days (reference value: 648.4 +/- 77.1 mg/dl); assay type: functional
Rattus norvegicus [6] = assay: Effect on RBC count in Sprague-Dawley rat at 12.5 mg/kg after 28 days (reference value: 832 +/- 25.2 x 10 ' 4/micro L); assay type: functional
[7] = molecular target: T2, Peroxisome proliferator-activated receptor alpha (Homo sapiens) (UniProt Q07869); assay: Transactivation of human full length PPARalpha expressed in COS1 cells co-transfected with RXRalpha after 24 hrs by luciferase reporter gene assay relative to WY14643; assay type: cell-based; details: COS-1
T2 sequence (whole entry): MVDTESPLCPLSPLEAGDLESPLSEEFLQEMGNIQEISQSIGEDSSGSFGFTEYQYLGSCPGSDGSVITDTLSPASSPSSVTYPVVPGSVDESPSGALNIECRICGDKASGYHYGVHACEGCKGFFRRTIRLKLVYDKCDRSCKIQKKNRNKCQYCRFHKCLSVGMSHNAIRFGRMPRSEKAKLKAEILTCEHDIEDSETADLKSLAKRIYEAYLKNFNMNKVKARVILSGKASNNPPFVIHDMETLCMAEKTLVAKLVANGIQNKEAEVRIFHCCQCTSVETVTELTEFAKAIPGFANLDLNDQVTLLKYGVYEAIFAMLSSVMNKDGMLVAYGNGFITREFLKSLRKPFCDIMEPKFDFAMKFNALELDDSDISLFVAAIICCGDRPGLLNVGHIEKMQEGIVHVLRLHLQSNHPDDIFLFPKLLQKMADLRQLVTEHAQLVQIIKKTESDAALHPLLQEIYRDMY

Rattus norvegicus [8] = assay: Effect on RBC count in Sprague-Dawley rat at 50 mg/kg after 28 days (reference value: 832 +/- 25.2 x 10 ' 4/micro L); assay type: functional
Mus musculus [9] = assay: Hypotriglyceridemic activity in po dosed diabetic KK-Ay mouse model assessed as decrease in triglyceride level compound administered for 14 days; assay type: functional; details: for ED50: 336 h
Mus musculus [10] = assay: Hypoglycemic activity in po dosed diabetic KK-Ay mouse model assessed as decrease in glucose level compound administered for 14 days; assay type: functional; details: for ED50: 336 h
[11] = Cmax in Sprague-Dawley rat at 10 mg/kg after 0.5 to 8 hrs by HPLC analysis; assay type: ADME, organism-based; design: dose 10 mg/kg; details: in vivo
Rattus norvegicus [12] = assay: Effect on RBC count in Sprague-Dawley rat at 100 mg/kg after 28 days (reference value: 832 +/- 25.2 x 10 ' 4/micro L); assay type: functional
Mus musculus [13] = assay: Hypotriglyceridemic activity in diabetic KK-Ay mouse model assessed as decrease in triglyceride level at 10 mg/kg, po qd for 14 days (reference value: 819.9 +/- 135.5 mg/dl); assay type: functional
Rattus norvegicus [14] = assay: Effect on hematocrit level in Sprague-Dawley rat at 100 mg/kg after 28 days (reference value: 47.5 +/- 0.6 %); assay type: functional
Mus musculus [15] = assay: Hypoglycemic activity in diabetic KK-Ay mouse model assessed as decrease in glucose level at 10 mg/kg, po qd for 14 days (reference value: 648.4 +/- 77.1 mg/dl); assay type: functional
Rattus norvegicus [16] = assay: Effect on hematocrit level in Sprague-Dawley rat at 50 mg/kg after 28 days (reference value: 47.5 +/- 0.6 %); assay type: functional
Mus musculus [17] = assay: Hypoglycemic activity in diabetic KK-Ay mouse model assessed as decrease in glucose level at 30 mg/kg, po qd for 14 days (reference value: 648.4 +/- 77.1 mg/dl); assay type: functional
Mus musculus [18] = assay: Hypotriglyceridemic activity in diabetic KK-Ay mouse model assessed as decrease in triglyceride level at 3 mg/kg, po qd for 14 days (reference value: 819.9 +/- 135.5 mg/dl); assay type: functional
Mus musculus [19] = assay: Hypoglycemic activity in diabetic KK-Ay mouse model assessed as decrease in glucose level at 10 mg/kg, po qd for 4 days relative to untreated control; assay type: functional; design: scale not given: the % may be the effect or the level left
Rattus norvegicus [20] = assay: Effect on hematocrit level in Sprague-Dawley rat at 25 mg/kg after 28 days (reference value: 47.5 +/- 0.6 %); assay type: functional
Rattus norvegicus [21] = assay: Effect on RBC count in Sprague-Dawley rat at 100 mg/kg after 28 days (reference value: 862 +/- 21.5 x 10 ' 4/micro L); assay type: functional
Rattus norvegicus [22] = assay: Effect on hematocrit level in Sprague-Dawley rat at 25 mg/kg after 28 days (reference value: 49.4 +/- 0.4 %); assay type: functional
Mus musculus [23] = assay: Ratio of rosiglitazone ED50 to compound ED50 for po dosed diabetic KK-Ay mouse model; assay type: functional
Rattus norvegicus [24] = assay: Effect on hematocrit level in Sprague-Dawley rat at 12.5 mg/kg after 28 days (reference value: 49.4 +/- 0.4 %); assay type: functional
[25] = molecular target: T3, Peroxisome proliferator-activated receptor gamma (Homo sapiens) (UniProt P37231); assay: Transactivation of human full length PPARgamma expressed in COS1 cells co-transfected with RXRalpha after 24 hrs by luciferase reporter gene assay relative to farglitazar; assay type: cell-based; details: COS-1
T3 sequence (whole entry): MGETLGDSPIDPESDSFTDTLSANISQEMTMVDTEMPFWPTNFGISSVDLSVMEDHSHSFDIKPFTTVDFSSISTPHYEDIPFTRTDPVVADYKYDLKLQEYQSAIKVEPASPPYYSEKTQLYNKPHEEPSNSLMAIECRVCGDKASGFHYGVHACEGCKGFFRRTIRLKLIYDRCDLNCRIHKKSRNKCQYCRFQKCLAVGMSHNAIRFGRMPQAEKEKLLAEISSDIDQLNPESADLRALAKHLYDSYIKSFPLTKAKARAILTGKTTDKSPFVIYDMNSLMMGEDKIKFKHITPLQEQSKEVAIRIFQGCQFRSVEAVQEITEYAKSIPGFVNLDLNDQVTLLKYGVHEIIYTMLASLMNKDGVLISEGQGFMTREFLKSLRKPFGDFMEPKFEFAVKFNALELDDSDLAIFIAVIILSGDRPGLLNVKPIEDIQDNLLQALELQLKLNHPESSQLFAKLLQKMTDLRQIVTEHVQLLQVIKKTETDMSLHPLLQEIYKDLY

[26] = molecular target: T3, Peroxisome proliferator-activated receptor gamma (Homo sapiens); assay: Ratio of rosiglitazone EC50 to compound EC50 for human full length PPARgamma
[27] = molecular target: T4, Peroxisome proliferator-activated receptor gamma (Homo sapiens, UniProt P37231); assay: Transactivation of human full length PPARgamma expressed in COS1 cells co-transfected with RXRalpha after 24 hrs by luciferase reporter gene assay; assay type: cell-based, COS-1
T4 sequence (P37231 whole entry): T3 sequence (whole entry)

Rattus norvegicus [28] = assay: Effect on RBC count in Sprague-Dawley rat at 12.5 mg/kg after 28 days (reference value: 862 +/- 21.5 x 10 ' 4/micro L); assay type: functional
Rattus norvegicus [29] = assay: Effect on hematocrit level in Sprague-Dawley rat at 50 mg/kg after 28 days (reference value: 49.4 +/- 0.4 %); assay type: functional
Rattus norvegicus [30] = assay: Effect on RBC count in Sprague-Dawley rat at 25 mg/kg after 28 days (reference value: 862 +/- 21.5 x 10 ' 4/micro L); assay type: functional
Rattus norvegicus [31] = assay: Effect on RBC count in Sprague-Dawley rat at 50 mg/kg after 28 days (reference value: 862 +/- 21.5 x 10 ' 4/micro L); assay type: functional
Rattus norvegicus [32] = assay: Effect on hematocrit level in Sprague-Dawley rat at 100 mg/kg after 28 days (reference value: 49.4 +/- 0.4 %); assay type: functional

SMILES | Activity (Mus musculus [1]) | IC50 [3] | Activity (Mus musculus [5]) | Emax [7] | Activity (Mus musculus [9]) | ED50 (Mus musculus [9]) | Activity (Mus musculus [10]) | ED50 (Mus musculus [10]) | Cmax [11] | Activity (Mus musculus [13]) | Activity (Mus musculus [15]) | Activity (Mus musculus [17]) | Activity (Mus musculus [18]) | Activity (Mus musculus [19]) | further results
CN(CCOc1ccc(CC2SC(=O)NC2=O)cc1)c1ccccn1 (stereo not drawn) [ROSIGLITAZONE] | 504.9 mg/dL | > 30 µM | 413.5 mg/dL | 105% | Dose-dependent effect | > 30 mg/kg | Dose-dependent effect | 23 mg/kg | 34.7 µM | 672.3 mg/dL | 392.9 mg/dL | 320.6 mg/dL | 593.3 mg/dL | 48% | Activity (Rattus norvegicus [2]): 727 ×10⁴ /uL; Activity (Rattus norvegicus [4]): 46.3%; Activity (Rattus norvegicus [6]): 791 ×10⁴ /uL; Activity (Rattus norvegicus [8]): 724 ×10⁴ /uL; Activity (Rattus norvegicus [12]): 679 ×10⁴ /uL; Activity (Rattus norvegicus [14]): 42.3%; Activity (Rattus norvegicus [16]): 43.1%; Activity (Rattus norvegicus [20]): 43.9%
C/C=C/C=C/C(=O)N1Cc2cc(OCCc3nc(/C=C/CCC(C)C)oc3C)ccc2C[C@H]1C(=O)O.CC(C)(C)N | 318.4 mg/dL | 1.18 µM | 385.2 mg/dL | < 50% | Dose-dependent effect | 6.2 mg/kg | Dose-dependent effect | 4.3 mg/kg | 4.5 µM | 243.8 mg/dL | 273.7 mg/dL | 252.5 mg/dL | 625.6 mg/dL | 55% | Activity (Rattus norvegicus [21]): 817 ×10⁴ /uL; Activity (Rattus norvegicus [22]): 47.1%; Ratio ED50 (Mus musculus [23]): 5; Activity (Rattus norvegicus [24]): 49.7%; Emax [25]: 98%; Ratio EC50 [26]: 4; EC50 [27]: 0.03 µM; Activity (Rattus norvegicus [28]): 868 ×10⁴ /uL; Activity (Rattus norvegicus [29]): 48.2%; Activity (Rattus norvegicus [30]): 807 ×10⁴ /uL; Activity (Rattus norvegicus [31]): 835 ×10⁴ /uL; Activity (Rattus norvegicus [32]): 47.8%
